# Source: patent US20240293345A1, “COMBINATIONS OF LOCAL ANESTHETICS FOR IMPROVED PAIN RELIEF” (priority 2021, published 2024)
# Tests used:
# [1] = Case studies: local anesthesia by injection to the mouth region before dental procedures; type: in vivo, human; conditions: for anesthetic effect of one local anesthetic alone: cases previously observed by the inventors; for local anesthetic effect / pain relief during dental procedures: patients with a history of poor pain relief after just one local anesthetic, injection to mouth region
# Source text: The experiments and disclosures provided herein are based on 9 case studies performed on patients that had, or previously has had phenotype red hair. The inventors performed odontological procedures on the patients and compared pain relief to prior experiences with local anesthetics.
# 9 patients with a history of poor pain relief after administration of just one local anesthetic received a combination of lidocaine and prilocaine before various dental procedures where performed. The patients pain sensation was the noted in case studies kept at the inventor's clinic.
# Commercially available Xylocain Dental Adrenaline (lidocaine HCL 20 mg/mL with epinephrine 12.5 μg/mL) and Citanest Dental Octopressin (prilocaine HCL 30 mg/mL and felypressin 0.54 μg/mL) was administered by injection to mouth region of the patient for pain relief. Both Xylocain Dental Adrenaline and Citanest Dental Octopressin was provided in cartridges containing 1.8 mL of solution comprising active ingredients in said concentrations.
# [2] = local anesthesia or nerve blocks; cited from earlier work
# [3] = given subcutaneously; cited from earlier work
# [4] = Local anesthesia for a dislocated shoulder (incident described by patient 192293); type: in vivo, human; conditions: three attempts of administration, patient's own account
# [5] = in vivo; cited from earlier work
Compound,anesthetic effect of one local anesthetic alone [1],local anesthetic effect / pain relief during dental procedures [1],local anesthetic effect / pain relief during dental procedures ([1]; listed as Lidocaine),onset of effect [2],anesthetic effects in redheads [3],pain relief [4],metabolism and excretion [5]
CCN(CC)CC(=O)Nc1c(C)cccc1C [lidocaine],did not provide adequate anesthetic effect,Poor effect,not effective,within several minutes,resistant to the anesthetic effects,without obtaining adequate pain relief,
CCN(CC)CCOC(=O)c1ccc(N)cc1 [novocaine],,,,,resistant to the anesthetic effects,,
CCCNC(C)C(=O)Nc1ccccc1C (stereo not drawn) [prilocaine],did not provide adequate anesthetic effect,,,,,,rapidly metabolized by the liver and excreted in the urine as o-toluidine
